The values below come from patent publication US6448224B1, “Antibiotics and methods of using the same” (priority 1998, dated 2002).

Assay [1] deals with RR insertion duplication mutant of R6x. Put plainly: Phenotypes of the mutants: lysis, RR mutant. Type of assay: cell-based, S. pneumoniae. As to the method: (§1) Bacterial strains and growth conditions: The parental strain of S. pneumoniae used in these studies was R6x [Tiraby et al., Proc. Natl. Acad. Sci. USA., 70:3541-3545 (1973)], a derivative of the unencapsulated Rockefeller strain R36A [Avery et al., J. Ex. Med., 79:137-158 (1944)]. Pneumococci were routinely grown on tryptic soy agar (TSA, Difco) supplemented with sheep blood to a final concentration of 3% (v/v). For growth in liquid culture, the bacteria were grown in a semi-synthetic casein hydrolysate medium supplemented with yeast extract (C+Y, [Lacks et al., Biochem. Biophys. Acta., 39:508-517 (1960)]). For the selection and maintenance of pneumococci containing chromosomally integrated plasmids, bacteria were grown in the presence of 1 μg/ml erythomycin and/or 250 μg/ml kanamycin.
(§2) Construction of mutations: Insertion duplication mutagenesis was carried out using PCR to generate gene fragments for homologous recombination proximal to the amino terminus of Orf W1, HK or RR as follows:
RR: 371 bp gene fragment spanning residues 142 (EcoR1 site) to 513 (BamH1 site) of SEQ ID NO:15.
(§3) Phenotypes of the mutants: The mutants were assessed for various physiological functions characteristic of pneumococci. This included lysis by penicillin, vancomycin, and the detergent deoxycholate (DOC). Other capabilities tested included ability to undergo natural DNA transformation (Transform) and expression of the LytA protein as assessed by Western blot. All mutants grew at the normal 30-40 minute doubling time and formed the classical diplococcal morphology.

The test system of assay [2] is loss of function mutants of the ABC transporter and RR/HK. Put plainly: Tolerance of loss of function mutants in ABC transporter and RR/HK to antibiotics. Type of assay: cell-based, S. pneumoniae. The note with it: all 3 mutants; growth inhibitory concentrations. The text has this:
As described in Example 6, using insertion duplication mutagenesis, loss of function mutations were obtained in each of the 3 open reading frames of the ABC transporter and each of the two parts of the RR/HK. […] These parallel phenotypes further implicate these topographically close genes in a common pathway.
Vancomycin is the only antibiotic that maintains efficacy against many strains of highly antibiotic resistant bacteria, such as staphylococci, enterococci and pneumococci. Escape from antibiotic activity of vancomycin has been detected in rare staphylococci and enterococci but not in pneumococci as yet. […] Infect. Dis. J., 12:196-200 (1993); Marton et al., J. Infect. Dis., 163:542-8 (1991); and Bradley et al., Pediatr. Infect. Dis., 14:1037-1041(1995)]. […] If they created a phenotype which was corrected by exogenous peptide, they may participate in the biological activity of the peptide. For instance, the ABC transporter may transport the peptide and the HK may serve as an extracellular receptor for the peptide which then changes the behavior of the bacteria (i.e. killing) via a RR signal.

The test system of assay [3] is Orf W1 insertion duplication mutant of R6x. As to the kind of experiment: Phenotypes of the mutants: lysis, Orf W1 mutant. Type of assay: cell-based, S. pneumoniae. As to the method:
as §1, §2
OrfW1: 435 bp gene fragment spanning residues 473 (EcoR1 site) to 908 (BamH1 site) of SEQ ID NO:21.
as §3

Assay [4] relates to clinical isolate F79 (mutations in HK and ABC transporter genes). Put plainly: Lysis of clinical isolate F79 cells. The format is cell-based, pneumococcus. The settings on record: 10×MIC penicillin and/or 0.5 mM peptide. On the procedure: (§4) FIGS. 11A-11B show the effects of 10×MIC of penicillin and/or 0.5 mM of the peptide having the amino acid sequence of SEQ ID NO:2 on the lysis of clinical isolate F79 cells (FIG. 11A) and HK mutant VanS cells (FIG. 11B).
(§5) F79 is a natural isolate of pneumococcus with mutations in the HK and the ABC transporter genes as determined by SSCP (see Example 11). This strain is tolerant to penicillin and vancomycin.

The subject of assay [5] is HK insertion duplication mutant of R6x. As to the kind of experiment: Phenotypes of the mutants: lysis, HK mutant. The format is cell-based, S. pneumoniae. As to the method: as §1, §2
HK: 411 bp gene fragment spanning residues 279 (EcoR1 site) to 690 (BamH1 site) of SEQ ID NO:13.
as §3

Another assay relates to clinical isolate A144. As to the kind of experiment: Cell viability (CFU/ml) of clinical isolate A144 one hour after addition. Type of assay: cell-based, pneumococcus. The settings on record: 10×MIC penicillin, 10×MIC vancomycin or 0.4 mM peptide. The text has this:
Tolerance to penicillin occurs in bacteria that fail to trigger autolysins in response to the drug. […] This is a mechanism of resistance to these drugs and is a serious emerging medical problem. […] However, one pneumococcal strain that fails to lyse and dies slowly in response to both penicillin and vancomycin is the clinical isolate A144. This combination of traits makes A144 recalcitrant to therapy. FIG. 8 compares the activity of penicillin, vancomycin, and the peptide against a classical sensitive strain, R6, and the tolerant strain A144. […] In contrast, strain A144 loses only 0.5 logs of viability in the same time period for all three therapies. […] Thereafter the bacteria grew more slowly than untreated controls.

Another assay deals with pneumococcal strain R6. As to the kind of experiment: Cell growth curves (OD 620 nm) of R6 cultures with or without test reagents. The format is cell-based, Streptococcus pneumoniae. The note with it: for ability to inhibit R6 growth (FIG. 5): 100 μM peptide added to growing R6 at OD 620 nm of 0.1. As to the method: Cell growth curves were performed in the presence or absence of the test reagents as specified. In short, samples were prepared as follows: 1 ml of a pneumococcus culture was placed into 10 ml of prewarmed Semisynthetic (C+Y) medium. The optical density (OD) of the bacteria was monitored at 620 nm until an OD of approximately 0.1 was reached. At this point the test reagents were administered to the samples. The cells were cultured for up to 11 hours at 37° Celsius, and the OD at 620 nm was monitored every hour. A decrease in OD 620 is indicative of cell lysis, an increase is indicative of bacterial growth. No change in optical density indicates growth inhibition.
The peptide having amino acid sequence SEQ ID NO:2 was chemically synthesized and tested for growth inhibiting, killing and lytic activity in Streptococcus pneumoniae cultures. To characterize the antibacterial activity of the peptide, pneumococcal strain R6 which is sensitive to penicillin was exposed to 0.1 mM of the peptide having the amino acid sequence of SEQ ID NO:2 at an optical density of 0.01 (bacterial density of 3×10^6 cfu/ml). Bacterial growth as measured by optical density was followed for 11 hours and viability was assessed by plating on blood agar. […] Four hours after the start of the experiment, the control strain grew from 3×10^6 to 1.2×10^7 cfu/ml. In contrast, four hours after addition of the peptide, the viable bacterial number decreased from 3×10^6 to 3×10^4 CFU/ml (10^3-fold lower than the control).
The fact that the peptide is active in the range below 1 μg/ml places the potency of its antibacterial effect in the same range as conventional antibiotics.
R6 with no peptide was the control and underwent exponential growth.

Assay [6] deals with pneumococcus R6, non-growing. As to the kind of experiment: Lysis of R6 cells under starvation conditions (medium lacking lysine). Type of assay: cell-based. The settings on record: 10×MIC penicillin and/or 0.5 mM peptide. An excerpt: When bacteria grow slowly or stop growing due to nutrient deprivation, they become tolerant to antibiotics of all classes. […] This prolongs the course of antibiotics needed to treat these infections. For instance, many weeks of therapy are required to treat endocarditis and osteomyelitis secondary to slowly growing bacteria. An in vitro example of phenotypic tolerance is shown in FIG. 10 where pneumococcus R6 has been transferred at time 0 to a medium lacking the essential amino acid lysine. Penicillin was added 5 min after the transfer. […] This same response is seen with the peptide.

The next assay deals with HK mutant strain Van S. As to the kind of experiment: Lysis of HK mutant VanS cells. The format is cell-based, pneumococcus. The settings on record: 10×MIC penicillin and/or 0.5 mM peptide. As to the method: as §4, §5

As for `CN[C@H](CC(C)C)C(=O)N[C@H]1C(=O)N[C@@H](CC(N)=O)C(=O)N[C@H]2C(=O)N[C@H]3C(=O)N[C@H](C(=O)N[C@H](C(=O)O)c4cc(O)cc(O)c4-c4cc3ccc4O)[C@H](O)c3ccc(c(Cl)c3)Oc3cc2cc(c3O[C@@H]2O[C@H](CO)[C@@H](O)[C@H](O)[C@H]2O[C@H]2C[C@](C)(N)[C@H](O)[C@H](C)O2)Oc2ccc(cc2Cl)[C@H]1O` [Vancomycin, vancomycin], the “Lysis by” value in assay [1] was “sensitive”; in assay [3], “tolerant”; in assay [5], “tolerant”. Further, in assay [2], the “lysis and death / tolerance of the mutants” value is given as “exhibited tolerance”. Besides, in [4], the “lysis / tolerance of F79” value is reported as “tolerant”. Besides, the “loss of viability of A144 within one hour” value in the assay on clinical isolate A144 is 0.5 logs.

Consider “LADKRPARDYN (listed as Streptococcus pneumoniae) [Peptide 5]”, for which the “ability to inhibit R6 growth (FIG. 5)” value in the assay with pneumococcal strain R6 was “Exponential growth equal to untreated bacteria”.

Take “MEFMRKEFHNVLSSGQLLADKRPARDYN (listed as Streptococcus pneumoniae) [SEQ ID NO:12]”: the “antibacterial activity against R6” value with pneumococcal strain R6 is on record as “no antibacterial activity”.

Turning to MRKEFHNVLSAGQLLADKRPARDYN [Peptide 3], the “ability to inhibit R6 growth (FIG. 5)” value in the assay with pneumococcal strain R6 was “greatly enhanced antibacterial effect”.

“MRKEFHNVLSSGQL (listed as Streptococcus pneumoniae) [Peptide 4]”: in the assay on pneumococcal strain R6, the “ability to inhibit R6 growth (FIG. 5)” value is listed as “Exponential growth equal to untreated bacteria”.

Regarding MRKEFHNVLSSGQLLADKRPARDAN [Peptide 2], the “ability to inhibit R6 growth (FIG. 5)” value in the assay with pneumococcal strain R6 was “greatly decreased anti-bacterial activity”.

“MRKEFHNVLSSGQLLADKRPARDYNRK (listed as Streptococcus pneumoniae) [Peptide 6]”: the “ability to inhibit R6 growth (FIG. 5)” value in the assay with pneumococcal strain R6 was “the same effect”.

With deoxycholate [DOC], the “Lysis by” value in [1] is on record as “yes”; in assay [3], “no”; in [5], “yes”.

Turning to penicillin, the “Lysis by” value in assay [1] was “sensitive”; in assay [3] it was “tolerant”; in assay [5], “tolerant”. For the same molecule, the “lysis and death / tolerance of the mutants” value in assay [2] was “failed to lyse and die”. Besides, in assay [6], the “lysis response of non-growing R6” value is recorded as “only a minimal response”. Besides, in assay [6], the “viability of non-growing R6” value is “unaffected”. Besides, the “lysis / tolerance of F79” value in assay [4] is reported as “tolerant”. For the same molecule, the “lysis / tolerance of strain Van S” value with HK mutant strain Van S was “tolerance”. In addition, the “loss of viability of A144 within one hour” value in the assay with clinical isolate A144 was 0.5 logs. In the assay with pneumococcal strain R6 (10×MIC, normal growth), the “lysis of growing R6” value is on record as “lyses R6 within one hour”.
